Patent US20150140043A1, “IMMUNOMODULATORY METHODS USING NOTCH AGONISTS” (INSTITUT NATIONAL DE LA SANTE DE LA RECHERCHE MEDICAL …, priority 2012, published 2015)

B1: DL-1: recombinant NOTCH ligand Delta-like 1, used coated as DL-1-Fc (SEQ ID NO: 8) (protein, listed as Homo sapiens)
chain: MGSRCALALAVLSALLCQVWSSGVFELKLQEFVNKKGLLGNRNCCRGGAGPPPCACRTFFRVCLKHYQASVSPEPPCTYGSAVTPVLGVDSFSLPDGGGADSAFSNPIRFPFGFTWPGTFSLIIEALHTDSPDDLATENPERLISRLATQRHLTVGEEWSQDLHSSGRTDLKYSYRFVCDEHYYGEGCSVFCRPRDDAFGHFTCGERGEKVCNPGWKGPYCTEPICLPGCDEQHGFCDKPGECKCRVGWQGRYCDECIRYPGCLHGTCQQPWQCNCQEGWGGLFCNQDLNYCTHHKPCKNGATCTNTGQGSYTCSCRPGYTGATCELGIDECDPSPCKNGGSCTDLENSYSCTCPPGFYGKICELSAMTCADGPCFNGGRCSDSPDGGYSCRCPVGYSGFNCEKKIDYCSSSPCSNGAKCVDLGDAYLCRCQAGFSGRHCDDNVDDCASSPCANGGTCRDGVNDFSCTCPPGYTGRNCSAPVSRCEHAPCHNGATCHERGHRYVCECARGYGGPNCQFLLPELPPGPAVVDLTEKLEGQGGPFPWVAVCAGVILVLMLLLGCAAVVVCVRLRLQKHRPPADPCRGETETMNNLANCQREKDISVSIIGATQIKNTNKKADFHGDHSADKNGFKARYPAVDYNLVQDLKGDDTAVRDAHSKRDTKCQPQGSSGEEKGTPTTLRGGEASERKRPDSGCSTSKDTKYQSVYVISEEKDECVIATEV

Columns and labels:
Format in all cases: cell-based, human
TGF-βRII RNA expression = experiment: Quantitative real-time PCR of TGF-βRII transcripts in CD4+CD25- T cells; conditions: coated anti-CD3 (200 ng/ml) and ligand (5 μg/ml) for 3 hours
Experimental: (§1) FIG. 3: TGF-βRII expression on effector T cells after NOTCH ligands exposure • A) CD4^+CD25^−T cells were purified using Miltenyi microbeads from PBMC and cultured for 3 hours in coated wells with anti-CD3 (200 ng/ml) and NOTCH ligands (5 μg/ml) or IgG control (5 μg/ml). Quantitative real-time PCR was performed to measure the transcripts levels of TGF-βRII. Data shown are mean±SEM and are representative of 4 independent experiments. * indicates P<0.05. • B) Protein levels of TGF-βRII in CD4^+CD25^−T cells stimulated to DL-1, DL-4 and Jagged-1 using FACS analysis. Mean of fluorescence are represented±SEM. * indicates P<0.05.
CD4^+CD25^− T cells were cultured for 3 hours in coated wells with anti-CD3 (200 ng/ml) and NOTCH ligands (5 μg/ml) or IgG control (5 μg/ml). Total RNA was extracted with Trizol (Invitrogen) and purified by chloroform extraction. RNA was then reverse transcribed using 1 mM oligodT and the Superscript™ HH Rnase H-reverse transcriptase (Invitrogen Life technologies) according to the manufacturer's instructions. Quantitative PCR was performed in a LightCycler System (Roche diagnostics) using a SYBR Green PCR kit from Roche Diagnostics. The cDNA input for each population was normalized to obtain equivalent signals with Splicing Factor 3A1 (SF3A1) used as housekeeping gene. Primers used were: […]
Active TGF-β mediates its biological functions by binding to TGF-β type I and type II receptors (TGF-βRII). Therefore, the effects of NOTCH activation on TGF-βRII expression of effector T cells were first investigated. […] This effect is abrogated in the presence of GSI (P<0.05 for comparison with culture performed without GSI vehicle).

[1] = system: TGF-βRII protein expression; experiment: Surface staining / flow cytometry of TGF-βRII protein on CD4+CD25- T cells; conditions: CD4+CD25- T cells incubated 48 hours with ligand
Experimental: as §1
For surface staining, the cells were harvested, washed twice and resuspended in 1% FCS buffer. The cells were stained with mAbs for CD4 (Beckman Coulter), TGF-βRII (R&D) as per manufacturer's instructions for 20 min at 4° C. Cells were then analyzed by flow cytometry using FACScalibur™ and CellQuest™ software (Becton Dickinson, San Jose, Calif., USA).
TGF-βRII protein expression was assessed by flow cytometry. In these experiments, effector CD4^+CD25^− T cells were isolated and incubated for 48 hours in the presence of NOTCH ligands or IgG control.

pSmad3 = experiment: Immunoblot for pSmad3 in CD4+CD25- T cells; conditions: 48 hours on coated ligand in the presence of TGF-β (5 ng/ml)
Experimental: FIG. 4: TGF-βRII function on effector T cells stimulated to NOTCH ligands • A) Western blot analysis was performed on CD4^+CD25^−T cells cultured for 48 hours in coated wells with anti-CD3 (200 ng/ml) and NOTCH ligands (5 μg/ml) in presence of TGF-β (5 ng/ml). The whole cell lysate was analysed by immunoblot for pSmad3 and b-actin was used as loading control. The experiment was repeated twice with similar results. […] Cells were analyzed 48 hours later and data normalized for β-galactosidase activity. Histograms show the luciferase activity in a representative experiment performed in PC12 with TβRII promoter-luciferase construct. The experiment was repeated 3 times with similar results.
CD4^+CD25^− T cells were stimulated with NOTCH Ligand during 2 days. 1 ng/ml of TGF-β was also added during 30 min to induce Smad3 phosphorylation. Cells were collected, washed and lysed with Tris HCL (20 mM) 0.5% SDS buffer in presence of DNase (benzonase), inhibitors of phosphatase and protease. 10 μg proteins were deposed for Western blot Analysis with following Antibodies: Anti-PhosphoSmad3, Smad3, Actine.
Given the above observations showing an upregulation of TGF-βRII following NOTCH activation, the inventors hypothesized that Jagged-1 and DL-4 led to an activation of TGF-β signalling in effector T cells. […]

Molecule | TGF-βRII RNA expression, increase compared to IgG control (TGF-βRII RNA expression) | TGF-βRII protein expression (MFI) [1] | pSmad3 signal (immunoblot) (pSmad3)
Jagged-1: recombinant NOTCH ligand Jagged-1, used coated as Jagged-1-Fc (SEQ ID NO: 5) | 2.8 fold | 130 | strong pSmad3 signal
B1 | did not significantly modify | 85 | weak pSmad3 signal
